Results taken from ChEMBL document CHEMBL1201862, “PubChem BioAssay data set” (2004).
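Tested at 5 concentrations; 48 h exposure; 96-well plates; endpoints linearly interpolated, else capped at highest concentration. The concentration for 50% growth inhibition is given as GI50.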 The source made the active and inactive calls. No stated cut-off is given here; in the data, active = GI50 up to about 1.1 µM and inactive = higher.

Assays:
Assay in all cases: growth of human tumour cells (NCI), 48 h
[1] = tested on: IGROV-1
[2] = tested on: OVCAR-3
[3] = tested on: CCRF-CEM
[4] = tested on: MDA-MB-231
[5] = tested on: NCI-H226
[6] = tested on: NCI-H460
[7] = tested on: 786-0
[8] = tested on: OVCAR-5
[9] = tested on: EKVX
[10] = tested on: A549
[11] = tested on: RPMI-8226
[12] = tested on: PC-3
[13] = tested on: U-251
[14] = tested on: SK-MEL-5
[15] = tested on: SNB-19
[16] = tested on: UACC-257
[17] = tested on: COLO 205
[18] = tested on: HCT-15
[19] = tested on: CAKI-1
[20] = tested on: HL-60
[21] = tested on: LOX IMVI
[22] = tested on: Hs-578T
[23] = tested on: KM12
[24] = tested on: M14
[25] = tested on: Malme-3M
[26] = tested on: SF-539
[27] = tested on: HOP-62
[28] = tested on: MDA-N
[29] = tested on: SW-620
[30] = tested on: HCC 2998
[31] = tested on: TK-10
[32] = tested on: RXF 393
[33] = tested on: MCF7
[34] = tested on: SK-OV-3
[35] = tested on: A498
[36] = tested on: MDA-MB-435
[37] = tested on: OVCAR-8
[38] = tested on: HOP-92
[39] = tested on: SN12C
[40] = tested on: K562
[41] = tested on: HCT-116
[42] = tested on: OVCAR-4
[43] = tested on: SR
[44] = tested on: NCI-H23
[45] = tested on: SNB-75
[46] = tested on: SF-268
[47] = tested on: SK-MEL-28
[48] = tested on: UACC-62
[49] = tested on: DU-145
[50] = tested on: NCI/ADR-RES
[51] = tested on: ACHN
[52] = tested on: SF-295
[53] = tested on: HT-29
[54] = tested on: NCI-H522
[55] = tested on: T47D

COc1ccc(-c2coc3cc(OC)cc(O)c3c2=O)cc1 [4',7-DIMETHOXY-5-HYDROXYGENISTEIN]
GI50 [1]: > 100 µM (inactive) | GI50 [2]: > 100 µM (inactive) | GI50 [3]: > 100 µM (inactive) | GI50 [4]: 31 µM (inactive) | GI50 [5]: > 100 µM (inactive) | GI50 [6]: > 100 µM (inactive) | GI50 [7]: 25.8 µM (inactive) | GI50 [8]: > 100 µM (inactive) | GI50 [9]: > 100 µM (inactive) | GI50 [10]: > 100 µM (inactive) | GI50 [11]: > 100 µM (inactive) | GI50 [12]: > 100 µM (inactive) | GI50 [13]: 43.3 µM (inactive) | GI50 [14]: > 100 µM (inactive) | GI50 [15]: 31.4 µM (inactive) | GI50 [16]: > 100 µM (inactive) | GI50 [17]: > 100 µM (inactive) | GI50 [18]: > 100 µM | GI50 [19]: > 100 µM (inactive) | GI50 [20]: > 100 µM (inactive) | GI50 [21]: > 100 µM (inactive) | GI50 [22]: 31.1 µM (inactive) | GI50 [23]: > 100 µM (inactive) | GI50 [24]: 52.7 µM (inactive) | GI50 [25]: > 100 µM (inactive) | GI50 [26]: 78.3 µM (inactive) | GI50 [27]: 32.4 µM (inactive) | GI50 [28]: > 100 µM (inactive) | GI50 [29]: > 100 µM (inactive) | GI50 [30]: > 100 µM (inactive) | GI50 [31]: 29.6 µM (inactive) | GI50 [32]: 27.9 µM (inactive) | GI50 [33]: > 100 µM (inactive) | GI50 [34]: > 100 µM (inactive) | GI50 [35]: 24.8 µM (inactive) | GI50 [36]: > 100 µM (inactive) | GI50 [37]: > 100 µM (inactive) | GI50 [38]: 7.41 µM (inactive) | GI50 [39]: > 100 µM (inactive) | GI50 [40]: > 100 µM (inactive) | GI50 [41]: > 100 µM (inactive) | GI50 [42]: > 100 µM (inactive) | GI50 [43]: > 100 µM (inactive) | GI50 [44]: 30.8 µM (inactive) | GI50 [45]: > 100 µM (inactive) | GI50 [46]: 51.3 µM (inactive) | GI50 [47]: > 100 µM (inactive) | GI50 [48]: > 100 µM (inactive) | GI50 [49]: > 100 µM (inactive) | GI50 [50]: > 100 µM (inactive) | GI50 [51]: 34.4 µM (inactive) | GI50 [52]: > 100 µM (inactive) | GI50 [53]: > 100 µM (inactive) | GI50 [54]: > 100 µM (inactive) | GI50 [55]: > 100 µM (inactive)
